Assays:
[1] = test system: WM-266-4 cells; assay: Cell Proliferation Inhibitory Test; assay type: cell-based; conditions: Homo sapiens, 72 h, cultured three days with test compound, MTT, read-out: 50% cell proliferation inhibitory activity (GI50 value)
In short: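 Cells cultured overnight, then exposed to serially diluted compound for three days; cell amount read by MTT. GI50 solved from 100×[(T−T0)/(C−T0)]=50, with T0 the value at time of compound addition and C the untreated three-day control.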

[2] = molecular target: T1, human mTOR (Homo sapiens, UniProt P42345); assay: mTOR Kinase Activity Inhibition Test; assay type: biochemical; conditions: His-tagged mTOR (1362C), biotinylated peptide substrate, ATP, 3 hours at room temperature, fluorescence resonance energy transfer 665 nm/620 nm; read-out: IC50 value of mTOR enzyme inhibitory activity
T1 construct: the portion corresponding to 1362-2549aa at the C terminus of human mTOR; made in house
In short: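 Purified His-tagged human mTOR (1362–2549aa, from HEK293) was used with biotinylated peptide (8 μg/mL in enzyme solution) in HEPES pH 7.5 with 20 mM MnCl2. Compounds were diluted in 20 μM ATP solution, and the reaction ran 3 h at RT. Phospho-S6K(Thr389) HTRF was read as the 665/620 nm ratio, and IC50 came from % inhibition versus controls.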

T1 sequence (P42345 1362-2549): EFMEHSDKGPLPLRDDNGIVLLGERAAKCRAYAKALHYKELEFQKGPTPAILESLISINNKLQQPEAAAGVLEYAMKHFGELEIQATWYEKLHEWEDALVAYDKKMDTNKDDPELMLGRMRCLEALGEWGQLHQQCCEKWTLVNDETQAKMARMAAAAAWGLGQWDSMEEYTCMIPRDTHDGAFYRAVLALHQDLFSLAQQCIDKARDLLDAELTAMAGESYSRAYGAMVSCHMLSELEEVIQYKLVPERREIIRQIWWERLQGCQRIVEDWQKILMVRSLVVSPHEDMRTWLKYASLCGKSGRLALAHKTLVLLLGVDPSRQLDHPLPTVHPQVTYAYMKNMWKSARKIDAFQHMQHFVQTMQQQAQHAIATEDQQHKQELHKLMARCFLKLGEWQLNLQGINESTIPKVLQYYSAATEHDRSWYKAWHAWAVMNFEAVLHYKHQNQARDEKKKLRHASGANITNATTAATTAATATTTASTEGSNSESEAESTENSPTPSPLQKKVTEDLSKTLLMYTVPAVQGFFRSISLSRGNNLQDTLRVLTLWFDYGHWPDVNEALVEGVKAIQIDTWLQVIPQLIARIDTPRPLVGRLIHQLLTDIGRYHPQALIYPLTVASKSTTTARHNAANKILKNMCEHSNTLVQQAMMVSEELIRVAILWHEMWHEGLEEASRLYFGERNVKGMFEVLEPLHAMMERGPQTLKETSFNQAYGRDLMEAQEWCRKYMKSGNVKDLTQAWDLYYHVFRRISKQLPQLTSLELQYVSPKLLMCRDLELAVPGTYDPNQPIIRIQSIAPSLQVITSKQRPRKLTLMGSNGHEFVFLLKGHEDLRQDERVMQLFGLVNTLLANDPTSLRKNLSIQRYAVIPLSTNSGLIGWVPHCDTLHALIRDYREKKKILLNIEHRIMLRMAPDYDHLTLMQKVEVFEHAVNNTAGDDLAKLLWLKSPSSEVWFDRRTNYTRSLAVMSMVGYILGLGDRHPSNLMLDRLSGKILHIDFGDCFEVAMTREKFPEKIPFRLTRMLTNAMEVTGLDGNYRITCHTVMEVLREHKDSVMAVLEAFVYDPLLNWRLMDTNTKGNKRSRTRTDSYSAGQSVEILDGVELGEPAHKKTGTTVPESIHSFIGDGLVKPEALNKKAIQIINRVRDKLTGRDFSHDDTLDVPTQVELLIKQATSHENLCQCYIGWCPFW

**Q.** Which results are given for `COC1(Cn2c(=O)[nH]c3ncc(-c4cnc5[nH]ccc5c4)cc32)CCOCC1` [Example 68, 1-[(4-Methoxytetrahydro-2H-pyran-4-yl)methyl]-6-(1H-pyrrolo[2,3-b]pyridin-5-yl)-1,3-dihydro-2H-imidazo[4,5-b]pyridin-2-one]?
**A.** GI50 [1]: < 3 µM; IC50 [2]: < 0.05 µM

**Q.** For `O=c1[nH]c2ncc(-c3cnc4[nH]ccc4c3)cc2n1CC1(F)CCOCC1` [Example 69, 1-[(4-Fluorotetrahydro-2H-pyran-4-yl)methyl]-6-(1H-pyrrolo[2,3-b]pyridin-5-yl)-1,3-dihydro-2H-imidazo[4,5-b]pyridin-2-one], which GI50 [1] is on record?
**A.** < 3 µM

**Q.** What about the IC50 [2] of the same compound?
**A.** < 0.05 µM

**Q.** `C[C@@H]1C[C@H](Cn2c(=O)[nH]c3ncc(-c4cnc5[nH]ccc5c4)cc32)C[C@H](C)O1` [Example 71, 1-{[(2R-4r-6S)-2,6-Dimethyltetrahydro-2H-pyran-4-yl]methyl}-6-(1H-pyrrolo-[2,3-b]pyridin-5-yl)-1,3-dihydro-2H-imidazo[4,5-b]pyridin-2-one] was tested. Which GI50 [1] did it give?
**A.** < 3 µM

**Q.** And the IC50 [2]?
**A.** < 0.05 µM

**Q.** `Nc1n[nH]c2ccc(-c3cnc4[nH]c(=O)n(CC5CCOCC5)c4c3)cc12` [Example 72, 6-(3-Amino-1H-indazol-5-yl)-1-(tetrahydro-2H-pyran-4-ylmethyl)-1,3-dihydro-2H-imidazo[4,5-b]pyridin-2-one] was tested. Which GI50 [1] did it give?
**A.** 3 to 25 µM

**Q.** What about the IC50 [2] of the same compound?
**A.** < 0.05 µM

**Q.** Which GI50 [1] does the source give for `O=c1[nH]c2ncc(-c3cnc4ccnn4c3)cc2n1CC1CCOCC1` [Example 73, 6-Pyrazolo[1,5-a]pyrimidin-6-yl-1-(tetrahydro-2H-pyran-4-ylmethyl)-1,3-dihydro-2H-imidazo[4,5-b]pyridin-2-one] here?
**A.** 3 to 25 µM

**Q.** What about the IC50 [2] of the same compound?
**A.** 0.1 to 5 µM

**Q.** Which results are given for `O=c1[nH]c2ncc(-c3cnc4[nH]ncc4c3)cc2n1CC1CCOCC1` [Example 74, 6-(1H-Pyrazolo[3,4-b]pyridin-5-yl)-1-(tetrahydro-2H-pyran-4-ylmethyl)-1,3-dihydro-2H-imidazo[4,5-b]pyridin-2-one]?
**A.** GI50 [1]: 3 to 25 µM; IC50 [2]: 0.1 to 5 µM

**Q.** For `O=c1[nH]c2ncc(-c3cnc4[nH]ccc4n3)cc2n1CC1CCOCC1` [Example 75, 6-(5H-Pyrrolo[2,3-b]pyrazin-2-yl)-1-(tetrahydro-2H-pyran-4-ylmethyl)-1,3-dihydro-2H-imidazo[4,5-b]pyridin-2-one], which GI50 [1] is on record?
**A.** < 3 µM

**Q.** And the IC50 [2]?
**A.** 0.05 to 0.1 µM

**Q.** `O=c1[nH]c2ncc(-c3cc4cc[nH]c4nn3)cc2n1CC1CCOCC1` [Example 76, 6-(7H-Pyrrolo[2,3-c]pyridazin-3-yl)-1-(tetrahydro-2H-pyran-4-ylmethyl)-1,3-dihydro-2H-imidazo[4,5-b]pyridin-2-one] was tested. Which GI50 [1] did it give?
**A.** 3 to 25 µM

**Q.** And the IC50 [2]?
**A.** < 0.05 µM

**Q.** For `Nc1c[nH]c2ncc(-c3cnc4[nH]c(=O)n(CC5CCOCC5)c4c3)cc12` [Example 77, 6-(3-Amino-1H-pyrrolo[2,3-b]pyridin-5-yl)-1-(tetrahydro-2H-pyran-4-ylmethyl)-1,3-dihydro-2H-imidazo[4,5-b]pyridin-2-one], which GI50 [1] is on record?
**A.** 3 to 25 µM

**Q.** And the IC50 [2]?
**A.** 0.05 to 0.1 µM

**Q.** Which GI50 [1] does the source give for `O=c1[nH]c2ncc(-c3cc4cc[nH]c4nc3Cl)cc2n1CC1CCOCC1` [Example 78, 6-(6-Chloro-1H-pyrrolo[2,3-b]pyridin-5-yl)-1-(tetrahydro-2H-pyran-4-ylmethyl)-1,3-dihydro-2H-imidazo[4,5-b]pyridin-2-one] here?
**A.** < 3 µM

**Q.** And the IC50 [2]?
**A.** < 0.05 µM

**Q.** Which GI50 [1] does the source give for `O=c1[nH]c2ncc(-c3cc4cc[nH]c4nc3F)cc2n1CC1CCOCC1` [Example 79, 6-(6-Fluoro-1H-pyrrolo[2,3-b]pyridin-5-yl)-1-(tetrahydro-2H-pyran-4-ylmethyl)-1,3-dihydro-2H-imidazo[4,5-b]pyridin-2-one] here?
**A.** < 3 µM

**Q.** And the IC50 [2]?
**A.** < 0.05 µM

**Q.** Which results are given for `O=Cc1c[nH]c2ccc(-c3cnc4[nH]c(=O)n(CC5CCOCC5)c4c3)cc12` [Example 81, 5-[2-Oxo-1-(tetrahydro-2H-pyran-4-ylmethyl)-2,3-dihydro-1H-imidazo[4,5-b]pyridin-6-yl]-1H-indole-3-carbaldehyde]?
**A.** GI50 [1]: < 3 µM; IC50 [2]: < 0.05 µM
